24 molecules from patent publication US20180099931A1 (AbbVie S.à.r.l., priority 2016, published 2018) can be followed below.

Structures are written as SMILES. Like-named read-outs stand apart in the source and are kept apart here.

Usually EC50 stands for the concentration that produces a half-maximal response.

The target of this test is T1, F508delCFTR (Homo sapiens, UniProt P13569, DEL508-508).
T1 construct: expressed in transfected cells; host or cells: CFBE41o- human lung-derived epithelial cells (CFBE4lo-F508delCFTR-HRP), doxycycline-inducible
As to the kind of experiment: Cell Surface Expression-Horse Radish Peroxidase (CSE-HRP) Assay.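 For Maximum % activity (with co-corrector): co-corrector and positive control are both the same reference corrector at 2 µM.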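 For Maximum % activity (without co-corrector): percent of the 2 µM on-plate positive control corrector response above DMSO.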 It is filed as cell-based. Conditions: for Maximum % activity (with co-corrector) / Emax: maximum at any tested concentration, normalized to on-plate positive control; for Emax: read-out: Maximum % activity (without co-corrector).

Setting [1] is: CSE-HRP, test compound without co-corrector, read-out: EC50 (without co-corrector).
Where [2] appears, read: CSE-HRP, with co-corrector (2 μM of 3-[(2R,4R)-4-({[1-(2,2-difluoro-1,3-benzodioxol-5-yl)cyclopropyl]carbonyl}amino)-7-methoxy-3,4-dihydro-2H-chromen-2-yl]benzoic acid), read-out: EC50 (with co-corrector).
Where [3] appears, read: CSE-HRP, with co-corrector (2 μM).
Setting [4] is: test compound without co-corrector, read-out: EC50 (without co-corrector).
[5] abbreviates: with co-corrector (2 μM of 3-[(2R,4R)-4-({[1-(2,2-difluoro-1,3-benzodioxol-5-yl)cyclopropyl]carbonyl}amino)-7-methoxy-3,4-dihydro-2H-chromen-2-yl]benzoic acid), read-out: EC50 (with co-corrector).
Where [6] appears, read: test compound without co-corrector.
Setting [7] is: with co-corrector (2 μM of 3-[(2R,4R)-4-({[1-(2,2-difluoro-1,3-benzodioxol-5-yl)cyclopropyl]carbonyl}amino)-7-methoxy-3,4-dihydro-2H-chromen-2-yl]benzoic acid).

T1 sequence (P13569 with tags, fused parts or gaps DEL508-508): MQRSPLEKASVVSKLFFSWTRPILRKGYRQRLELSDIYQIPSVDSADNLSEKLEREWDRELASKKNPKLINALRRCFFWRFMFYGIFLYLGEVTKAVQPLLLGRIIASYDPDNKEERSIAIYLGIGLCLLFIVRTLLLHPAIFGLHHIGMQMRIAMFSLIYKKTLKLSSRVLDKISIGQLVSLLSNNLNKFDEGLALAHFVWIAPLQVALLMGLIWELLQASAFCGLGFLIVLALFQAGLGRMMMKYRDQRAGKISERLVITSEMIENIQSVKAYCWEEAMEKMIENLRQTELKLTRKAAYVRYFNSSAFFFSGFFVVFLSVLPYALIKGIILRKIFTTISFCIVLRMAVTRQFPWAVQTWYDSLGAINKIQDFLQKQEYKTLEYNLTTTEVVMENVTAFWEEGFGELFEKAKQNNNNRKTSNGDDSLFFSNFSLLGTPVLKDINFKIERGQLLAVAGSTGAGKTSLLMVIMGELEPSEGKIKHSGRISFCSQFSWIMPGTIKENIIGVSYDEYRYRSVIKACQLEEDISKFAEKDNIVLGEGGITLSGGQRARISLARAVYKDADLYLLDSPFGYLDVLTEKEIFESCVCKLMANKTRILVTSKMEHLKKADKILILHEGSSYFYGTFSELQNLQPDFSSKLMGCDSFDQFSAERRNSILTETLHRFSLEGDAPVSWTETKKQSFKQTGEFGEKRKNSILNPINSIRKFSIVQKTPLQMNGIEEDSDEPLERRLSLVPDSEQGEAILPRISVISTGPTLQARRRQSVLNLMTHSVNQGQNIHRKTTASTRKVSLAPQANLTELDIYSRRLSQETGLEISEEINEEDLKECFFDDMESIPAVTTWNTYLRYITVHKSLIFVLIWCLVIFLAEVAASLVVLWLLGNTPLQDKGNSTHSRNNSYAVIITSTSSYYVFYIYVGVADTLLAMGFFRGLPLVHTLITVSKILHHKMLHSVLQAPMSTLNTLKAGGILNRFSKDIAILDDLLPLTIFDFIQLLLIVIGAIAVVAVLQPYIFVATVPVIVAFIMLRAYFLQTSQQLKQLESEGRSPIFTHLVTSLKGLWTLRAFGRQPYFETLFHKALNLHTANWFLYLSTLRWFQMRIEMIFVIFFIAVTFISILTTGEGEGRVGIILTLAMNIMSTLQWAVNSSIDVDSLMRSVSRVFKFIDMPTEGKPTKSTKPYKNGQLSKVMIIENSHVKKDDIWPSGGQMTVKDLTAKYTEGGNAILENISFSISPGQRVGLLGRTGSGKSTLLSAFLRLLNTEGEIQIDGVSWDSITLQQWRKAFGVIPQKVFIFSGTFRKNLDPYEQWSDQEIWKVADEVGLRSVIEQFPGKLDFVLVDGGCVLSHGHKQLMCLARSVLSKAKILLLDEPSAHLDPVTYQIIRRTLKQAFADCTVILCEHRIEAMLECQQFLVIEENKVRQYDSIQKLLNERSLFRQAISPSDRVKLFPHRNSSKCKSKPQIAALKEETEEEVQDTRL

`COc1ccc(C(C)(C)C)cc1CN[C@H]1[C@H](C(C)(C)C)[C@@H](C(=O)O)N(C(=O)C(C)c2ccccc2)[C@H]1c1ccccc1` (stereo partly drawn) [II-215]: the EC50 is, setting by setting: under setting [1], 1000 to 10000 nM; under setting [2], < 1000 nM. Also, the “Maximum % activity (with co-corrector)” value under setting [3] is listed as “+++ (≥350)”. Besides, the Emax (CSE-HRP, without co-corrector) is > 200%.
Turning to `COc1ccc(C(C)(C)C)cc1CN[C@H]1[C@H](C(C)(C)C)[C@@H](C(=O)O)N(C(=O)c2ccc3c(c2)OCCO3)[C@H]1c1cccnc1N(C)C` [Example I-199], the EC50 is 1000 to 10000 nM under setting [4] and 1000 to 10000 nM under setting [5]. Also, the “Maximum % activity (with co-corrector)” value (with co-corrector (2 μM)) is on record as “+++ (≥350)”. For the setting “without co-corrector”, the Emax was in the range of 100 to 200%.
Consider `COc1ncc(C2CC2)cc1CN[C@H]1[C@H](C(C)(C)C)[C@@H](C(=O)O)N(C(=O)[C@@H]2CCCO2)[C@H]1c1ccccc1Br` [Example I-293], for which the half-maximal effective concentration (EC50) lay within 1000 to 10000 nM under setting [1] and 1000 to 10000 nM under setting [2]. Further, under setting [3], the “Maximum % activity (with co-corrector)” value is “+++ (≥350)”. For the same molecule, under “CSE-HRP, without co-corrector”, the Emax was > 200%.
With `COc1ccc(C(C)(C)C)cc1CN[C@H]1[C@H](C(C)(C)C)[C@@H](C(=O)O)N(C(=O)C2(c3cccc(Cl)c3)COC2)[C@H]1c1ccccc1` [II-497], under setting [6], the Emax was < 100%. In addition, the EC50 reads like this: under setting [4], 1000 to 10000 nM; under setting [5], 1000 to 10000 nM. Further, the “Maximum % activity (with co-corrector)” value under setting [7] is “++ (≥150 and <350)”.
`COc1ccc(C(C)(C)C)cc1CN[C@H]1[C@H](C(C)(C)C)[C@@H](C(=O)O)N(C(=O)Cc2ccccc2)[C@H]1c1ccccc1` [II-180]: the EC50 by setting is: under setting [1], 1000 to 10000 nM; under setting [2], < 1000 nM. In addition, under setting [3], the “Maximum % activity (with co-corrector)” value is given as “+++ (≥350)”. Moreover, the Emax (CSE-HRP, without co-corrector) is > 200%.
Regarding `COc1ncc(C(F)(F)F)cc1CN[C@@H]1[C@@H](C(C)(C)C)[C@H](C(=O)O)N(C(=O)[C@@H]2CCCCO2)[C@@H]1c1ccccc1` [III-165], the Emax under setting [6] is < 100%. The EC50 runs as follows: under setting [4], 1000 to 10000 nM; under setting [5], 1000 to 10000 nM. Moreover, for the setting “with co-corrector (2 μM)”, the “Maximum % activity (with co-corrector)” value is “++ (≥150 and <350)”.
`COc1ccc(C(C)(C)C)cc1CN[C@H]1[C@H](C(C)(C)C)[C@@H](C(=O)O)N(C(=O)c2ccc3cccc(F)c3n2)[C@H]1c1ccccc1` [Example I-93]: the EC50 by setting is: under setting [4], 1000 to 10000 nM; under setting [5], 1000 to 10000 nM. Moreover, under “with co-corrector (2 μM)”, the “Maximum % activity (with co-corrector)” value was “+++ (≥350)”. Moreover, the Emax (without co-corrector) is 100 to 200%.
On to `COc1ccc(C(C)(C)C)cc1CN[C@H]1[C@H](C(C)(C)C)[C@@H](C(=O)O)N(C(=O)c2c(C)nn(-c3ccccc3F)c2C)[C@H]1c1ccccc1` [Example I-146], for which the EC50 was 1000 to 10000 nM under setting [4] and < 1000 nM under setting [5]. In addition, the “Maximum % activity (with co-corrector)” value (with co-corrector (2 μM)) is on record as “+++ (≥350)”. Moreover, for the setting “without co-corrector”, the Emax is > 200%.
For `CO[C@@H](C(=O)N1[C@H](c2cccnc2N(C)C)[C@H](Nc2cc(C(F)(F)F)cc(C)n2)[C@@H](C(C)(C)C)[C@@H]1C(=O)O)c1ccccc1` (racemic) [III-89], under setting [6], the Emax is < 100%. In addition, the EC50 runs as follows: under setting [4], > 10000 nM; under setting [5], > 10000 nM. Under setting [7], the “Maximum % activity (with co-corrector)” value is reported as “+ (<150)”.
Regarding `COc1ccc(C2(C)CCC2)cc1CN[C@H]1[C@H](C(C)(C)C)[C@@H](C(=O)O)N(C(=O)[C@@H]2CCCCO2)[C@H]1c1ccccc1C` [Example 109, (2S,3S,4S,5S)-3-tert-butyl-4-({[2-methoxy-5-(1-methylcyclobutyl)phenyl]methyl}amino)-5-(2-methylphenyl)-1-[(2S)-oxane-2-carbonyl]pyrrolidine-2-carboxylic acid], the EC50 is, setting by setting: under setting [4], < 1000 nM; under setting [5], < 1000 nM. Also, the “Maximum % activity (with co-corrector)” value (with co-corrector (2 μM)) is listed as “+++ (≥350)”. Besides, where the note is “without co-corrector”, the Emax was > 200%.
On to `COc1ccc(C(C)(C)C)cc1CN[C@H]1[C@H](C(C)(C)C)[C@@H](C(=O)O)N(C(=O)C2CCc3ccccc3O2)[C@H]1c1cccnc1N(C)C` (single isomer, unassigned) [Example 43, (2S,3S,4S,5S)-3-tert-butyl-4-{[(5-tert-butyl-2-methoxyphenyl)methyl]amino}-1-[(2S*)-3,4-dihydro-2H-1-benzopyran-2-carbonyl]-5-[2-(dimethylamino)pyridin-3-yl]pyrrolidine-2-carboxylic acid], for which the EC50 is 1000 to 10000 nM under setting [4] and < 1000 nM under setting [5]. Further, the “Maximum % activity (with co-corrector)” value (with co-corrector (2 μM)) is “+++ (≥350)”. Also, the Emax (without co-corrector) lay within 100 to 200%.
On to `COc1ccccc1CN[C@@H]1[C@@H](C(C)(C)C)[C@H](C(=O)O)N(C(=O)OC(C)C)[C@@H]1c1ccccc1` (racemic) [II-46], for which the EC50 runs as follows: under setting [1], 1000 to 10000 nM; under setting [2], 1000 to 10000 nM. In addition, under setting [3], the “Maximum % activity (with co-corrector)” value is recorded as “+++ (≥350)”. Also, under “CSE-HRP, without co-corrector”, the Emax was 100 to 200%.
Consider `COc1ccc(-c2cccnc2OC)cc1CN[C@H]1[C@H](C(C)(C)C)[C@@H](C(=O)O)N(C(=O)C2CCCCC2)[C@H]1c1ccccc1` [II-250], for which the EC50 under setting [1] was in the range of 1000 to 10000 nM and the EC50 under setting [2] lay within 1000 to 10000 nM. Further, the “Maximum % activity (with co-corrector)” value under setting [3] is listed as “+++ (≥350)”. Also, under “CSE-HRP, without co-corrector”, the Emax was in the range of 100 to 200%.
Take `COc1ccc(C(C)(C)C)cc1CN[C@H]1[C@H](C(C)(C)C)[C@@H](C(=O)O)N(C(=O)Cc2ccc(F)c(F)c2)[C@H]1c1ccccc1` [III-172]: the Emax under setting [6] lay in the range of 100 to 200%. Further, the EC50 reads like this: under setting [4], 1000 to 10000 nM; under setting [5], < 1000 nM. Further, the “Maximum % activity (with co-corrector)” value (with co-corrector (2 μM)) is on record as “+++ (≥350)”.
As to `CC(C)(C)[C@H]1[C@H](NCc2cc(Cl)ccc2OCC2CC2)[C@H](c2ccccc2)N(C(=O)C2CCCCC2)[C@@H]1C(=O)O` [II-139], the EC50 reads like this: under setting [1], 1000 to 10000 nM; under setting [2], 1000 to 10000 nM. Besides, the “Maximum % activity (with co-corrector)” value under setting [3] is “++ (≥150 and <350)”. For the same molecule, the Emax (CSE-HRP, without co-corrector) is < 100%.
Take `COc1ccc(Cl)cc1CN[C@H]1[C@H](C(C)(C)C)[C@@H](C(=O)O)N(C(=O)OC(C)C)[C@H]1c1cccnc1N(C)C` [II-568]: the Emax under setting [6] was in the range of 100 to 200%. Further, the EC50 under setting [4] is 1000 to 10000 nM and the EC50 under setting [5] lay in the range of 1000 to 10000 nM. Besides, under setting [7], the “Maximum % activity (with co-corrector)” value was “++ (≥150 and <350)”.
Turning to `COc1ccc2c(c1)[C@](C)(C(=O)N1[C@H](C(=O)O)[C@@H](C(C)(C)C)[C@H](NCc3cc(C(C)(C)C)ccc3OC)[C@@H]1c1cccnc1OC)CC2` [II-570], the Emax under setting [6] is < 100%. Besides, the EC50 was in the range of 1000 to 10000 nM under setting [4] and 1000 to 10000 nM under setting [5]. Further, under setting [7], the “Maximum % activity (with co-corrector)” value was “++ (≥150 and <350)”.
Turning to `COc1cc(C(F)(F)F)ccc1CN[C@@H]1[C@@H](C(C)(C)C)[C@H](C(=O)O)N(C(=O)C2COCCO2)[C@@H]1c1ccccc1` (mixture of isomers) [III-113], the Emax under setting [6] was < 100%. Also, the EC50 was 1000 to 10000 nM under setting [4] and 1000 to 10000 nM under setting [5]. Under “with co-corrector (2 μM)”, the “Maximum % activity (with co-corrector)” value was “++ (≥150 and <350)”.
For the molecule `COc1ccc(C(C)(C)C)cc1CN[C@H]1[C@H](C(C)(C)C)[C@@H](C(=O)O)N(C(=O)C2COC(C(C)C)OC2)[C@H]1c1ccccc1` (stereo partly drawn) [II-216], the EC50 is, setting by setting: under setting [1], 1000 to 10000 nM; under setting [2], 1000 to 10000 nM. In addition, the “Maximum % activity (with co-corrector)” value under setting [3] was “+++ (≥350)”. Moreover, the Emax (CSE-HRP, without co-corrector) lay within 100 to 200%.
As to `COc1ccc(C(C)(C)C)cc1CN[C@H]1[C@H](C(C)(C)C)[C@@H](C(=O)O)N(C(=O)C2(c3ccccn3)CC2)[C@H]1c1ccccc1` [II-189], the EC50 is 1000 to 10000 nM under setting [1] and 1000 to 10000 nM under setting [2]. Moreover, the “Maximum % activity (with co-corrector)” value under setting [3] was “+++ (≥350)”. Further, the Emax (CSE-HRP, without co-corrector) was > 200%.
As for `COc1ncc(C(F)(F)F)cc1CN[C@H]1[C@H](C(C)(C)C)[C@@H](C(=O)O)N(C(=O)C2Cc3cccc(C)c3O2)[C@H]1c1ccccc1` (stereo partly drawn) [II-446], the Emax under setting [6] is < 100%. The EC50 is, setting by setting: under setting [4], 1000 to 10000 nM; under setting [5], 1000 to 10000 nM. Besides, the “Maximum % activity (with co-corrector)” value under setting [7] was “++ (≥150 and <350)”.
With `COc1ncc(-c2cccc(F)c2F)cc1CN[C@H]1[C@H](C(C)(C)C)[C@@H](C(=O)O)N(C(=O)C2CCCCC2)[C@H]1c1ccccc1` [II-346], the Emax under setting [6] is > 200%. Moreover, the EC50 under setting [4] lay in the range of 1000 to 10000 nM and the EC50 under setting [5] is 1000 to 10000 nM. Further, the “Maximum % activity (with co-corrector)” value under setting [7] is “+++ (≥350)”.
In the case of `COc1ncc(C2CCC2)cc1CN[C@H]1[C@H](C(C)(C)C)[C@@H](C(=O)O)N(C(=O)[C@H]2CCCCO2)[C@H]1c1ccccc1C(C)C` [Example 72, (2S,3S,4S,5S)-3-tert-butyl-4-{[(5-cyclobutyl-2-methoxypyridin-3-yl)methyl]amino}-1-[(2R)-oxane-2-carbonyl]-5-[2-(propan-2-yl)phenyl]pyrrolidine-2-carboxylic acid], the EC50 under setting [4] fell in the range of 1000 to 10000 nM and the concentration giving a half-maximal response (EC50) under setting [5] was < 1000 nM. For the same molecule, the “Maximum % activity (with co-corrector)” value (with co-corrector (2 μM)) was “+++ (≥350)”. Where the note is “without co-corrector”, the Emax was > 200%.
Turning to `COc1ccc(SC(F)(F)F)cc1CN[C@H]1[C@H](C(C)(C)C)[C@@H](C(=O)O)N(C(=O)C2CCCCC2)[C@H]1c1cccnc1OC` [II-527], the Emax under setting [6] fell in the range of 100 to 200%. The EC50 is, setting by setting: under setting [4], 1000 to 10000 nM; under setting [5], 1000 to 10000 nM. Also, the “Maximum % activity (with co-corrector)” value under setting [7] is given as “+++ (≥350)”.
